Source: patent US12447153B2, “HER2 mutation inhibitors” (Array BioPharma Inc., priority 2021, dated 2025)

Key:
ErbB2 WT = ErbB2 WT (Homo sapiens (Human), UniProt P04626); test: ErbB Enzyme Assay (HTRF KinEASE-TK), Assay 2; assay type: biochemical; settings: ErbB2 WT enzyme
[1] = molecular target: ErbB2 with Exon 20 YVMA insertion (HER2-YVMA) (Homo sapiens (Human), UniProt P04626, INS775YVMA); test: Cellular Phosphorylation Assay, Assay 4 (constitutive ErbB2 phosphorylation, NIH 3T3 cells); assay type: cell-based; settings: ErbB2 YVMA phosphorylation
Chain of ErbB2 with Exon 20 YVMA insertion (HER2-YVMA) (P04626 other isoform, or with tags, fused parts or gaps ins YVMA behind 775): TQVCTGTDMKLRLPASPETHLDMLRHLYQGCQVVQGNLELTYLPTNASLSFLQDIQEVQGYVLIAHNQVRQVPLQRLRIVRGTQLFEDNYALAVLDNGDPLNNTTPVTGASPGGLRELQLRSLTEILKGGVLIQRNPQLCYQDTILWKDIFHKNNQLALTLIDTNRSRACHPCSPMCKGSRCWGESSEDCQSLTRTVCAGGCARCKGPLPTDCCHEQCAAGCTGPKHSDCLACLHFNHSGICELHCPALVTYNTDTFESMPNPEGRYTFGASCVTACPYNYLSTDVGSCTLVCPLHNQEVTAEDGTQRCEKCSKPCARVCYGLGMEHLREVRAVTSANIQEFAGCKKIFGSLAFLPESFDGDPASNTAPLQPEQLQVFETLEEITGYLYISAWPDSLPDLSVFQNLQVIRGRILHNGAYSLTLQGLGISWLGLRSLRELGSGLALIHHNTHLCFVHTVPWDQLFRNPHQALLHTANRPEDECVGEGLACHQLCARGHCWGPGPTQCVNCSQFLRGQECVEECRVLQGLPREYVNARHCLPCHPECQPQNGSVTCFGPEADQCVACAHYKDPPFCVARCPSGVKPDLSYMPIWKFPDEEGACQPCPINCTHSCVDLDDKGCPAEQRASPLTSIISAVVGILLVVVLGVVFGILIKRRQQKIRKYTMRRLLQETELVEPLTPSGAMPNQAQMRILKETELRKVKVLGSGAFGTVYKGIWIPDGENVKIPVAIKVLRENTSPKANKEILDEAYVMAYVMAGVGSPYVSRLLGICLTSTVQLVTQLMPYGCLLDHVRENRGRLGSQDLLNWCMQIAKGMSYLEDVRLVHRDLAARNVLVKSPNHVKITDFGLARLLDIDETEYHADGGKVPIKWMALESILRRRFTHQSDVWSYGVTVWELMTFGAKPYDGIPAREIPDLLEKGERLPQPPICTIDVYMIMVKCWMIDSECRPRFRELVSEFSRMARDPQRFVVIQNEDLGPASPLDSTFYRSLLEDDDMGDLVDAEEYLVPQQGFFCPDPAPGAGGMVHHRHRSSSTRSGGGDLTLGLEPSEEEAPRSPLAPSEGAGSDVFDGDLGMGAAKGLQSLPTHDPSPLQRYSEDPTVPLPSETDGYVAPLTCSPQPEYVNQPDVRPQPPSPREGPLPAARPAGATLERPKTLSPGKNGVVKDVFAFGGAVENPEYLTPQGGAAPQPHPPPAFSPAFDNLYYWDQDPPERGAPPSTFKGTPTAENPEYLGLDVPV

EGFR = EGFR (Homo sapiens (Human), UniProt P00533); test: ErbB Enzyme Assay (HTRF KinEASE-TK), Assay 3; assay type: biochemical; settings: EGFR enzyme
Chain of EGFR (P00533 25-1210): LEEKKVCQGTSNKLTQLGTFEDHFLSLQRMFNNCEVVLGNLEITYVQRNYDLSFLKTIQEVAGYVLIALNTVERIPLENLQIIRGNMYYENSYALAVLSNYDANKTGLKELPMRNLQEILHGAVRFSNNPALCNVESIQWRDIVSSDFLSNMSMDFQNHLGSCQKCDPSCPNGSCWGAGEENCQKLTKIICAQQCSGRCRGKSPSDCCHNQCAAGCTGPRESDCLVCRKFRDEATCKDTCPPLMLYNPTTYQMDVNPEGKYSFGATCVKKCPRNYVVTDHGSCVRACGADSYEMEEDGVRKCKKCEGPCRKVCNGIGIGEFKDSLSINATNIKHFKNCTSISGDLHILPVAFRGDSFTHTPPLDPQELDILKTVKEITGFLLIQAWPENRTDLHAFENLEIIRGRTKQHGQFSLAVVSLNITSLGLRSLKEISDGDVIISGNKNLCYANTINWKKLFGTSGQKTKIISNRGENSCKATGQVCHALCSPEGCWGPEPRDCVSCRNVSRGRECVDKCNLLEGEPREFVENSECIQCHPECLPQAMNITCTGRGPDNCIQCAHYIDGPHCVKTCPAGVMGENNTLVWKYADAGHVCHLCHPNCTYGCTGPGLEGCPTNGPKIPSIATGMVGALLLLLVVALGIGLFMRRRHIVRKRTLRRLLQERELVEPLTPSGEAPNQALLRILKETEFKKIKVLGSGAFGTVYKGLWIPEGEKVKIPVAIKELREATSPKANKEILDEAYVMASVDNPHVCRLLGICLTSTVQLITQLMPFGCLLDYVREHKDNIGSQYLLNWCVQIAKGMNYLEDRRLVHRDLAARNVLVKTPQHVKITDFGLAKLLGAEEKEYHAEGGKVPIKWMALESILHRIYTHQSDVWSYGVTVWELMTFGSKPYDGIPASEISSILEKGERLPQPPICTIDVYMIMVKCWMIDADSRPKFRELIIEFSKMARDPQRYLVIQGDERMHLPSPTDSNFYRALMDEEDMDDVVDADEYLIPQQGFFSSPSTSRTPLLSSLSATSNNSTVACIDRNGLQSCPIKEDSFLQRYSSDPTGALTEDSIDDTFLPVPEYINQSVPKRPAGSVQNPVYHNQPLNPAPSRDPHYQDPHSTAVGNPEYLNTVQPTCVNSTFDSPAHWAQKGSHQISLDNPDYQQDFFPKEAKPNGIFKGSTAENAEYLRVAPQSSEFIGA

EGFR wild type (EGFR WT) = EGFR wild type (EGFR WT) (Homo sapiens (Human), UniProt P00533); test: Cellular Phosphorylation Assay, Assay 5 (EGF-stimulated EGFR phosphorylation, NIH 3T3 cells); assay type: cell-based; settings: EGF-stimulated EGFR WT phosphorylation
Chain of EGFR wild type (EGFR WT) (P00533 25-1210): as above

Chain of ErbB2 WT (P04626 23-1255): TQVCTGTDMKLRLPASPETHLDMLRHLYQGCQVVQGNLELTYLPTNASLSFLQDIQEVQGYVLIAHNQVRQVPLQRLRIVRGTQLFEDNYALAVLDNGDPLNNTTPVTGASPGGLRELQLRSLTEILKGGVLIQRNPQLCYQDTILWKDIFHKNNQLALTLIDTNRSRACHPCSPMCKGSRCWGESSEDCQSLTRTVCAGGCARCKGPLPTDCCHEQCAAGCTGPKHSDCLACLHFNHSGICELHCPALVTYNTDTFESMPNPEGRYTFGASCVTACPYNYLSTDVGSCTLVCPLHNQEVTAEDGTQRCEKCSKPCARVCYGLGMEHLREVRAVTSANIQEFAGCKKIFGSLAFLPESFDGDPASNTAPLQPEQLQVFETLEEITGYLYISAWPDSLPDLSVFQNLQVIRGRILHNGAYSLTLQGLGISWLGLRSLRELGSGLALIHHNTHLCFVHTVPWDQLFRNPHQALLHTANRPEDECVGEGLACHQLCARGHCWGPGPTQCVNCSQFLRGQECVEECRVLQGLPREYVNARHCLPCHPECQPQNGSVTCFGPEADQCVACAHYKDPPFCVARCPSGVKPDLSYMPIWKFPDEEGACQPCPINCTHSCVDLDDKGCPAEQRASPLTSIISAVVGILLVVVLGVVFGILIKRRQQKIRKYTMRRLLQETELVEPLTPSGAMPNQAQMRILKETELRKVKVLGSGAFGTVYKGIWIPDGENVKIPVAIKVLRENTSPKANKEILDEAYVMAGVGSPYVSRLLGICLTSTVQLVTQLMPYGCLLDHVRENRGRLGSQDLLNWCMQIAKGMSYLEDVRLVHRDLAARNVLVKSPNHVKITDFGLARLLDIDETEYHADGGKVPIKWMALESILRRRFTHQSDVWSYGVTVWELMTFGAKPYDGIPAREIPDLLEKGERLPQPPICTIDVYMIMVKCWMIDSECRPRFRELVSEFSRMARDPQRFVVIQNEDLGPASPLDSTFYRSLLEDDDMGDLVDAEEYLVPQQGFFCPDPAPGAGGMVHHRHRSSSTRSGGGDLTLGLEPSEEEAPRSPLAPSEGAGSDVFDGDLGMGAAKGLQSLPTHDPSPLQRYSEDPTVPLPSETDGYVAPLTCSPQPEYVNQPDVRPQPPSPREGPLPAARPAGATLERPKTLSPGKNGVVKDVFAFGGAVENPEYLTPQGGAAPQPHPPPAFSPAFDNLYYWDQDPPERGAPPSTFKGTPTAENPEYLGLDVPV

With `C=CC(=O)N1CCC(Sc2ccc3ncnc(Nc4ccc(Oc5ccn6ncnc6c5)c(C)c4F)c3n2)CC1` [Example 60, 1-(4-((4-((4-([1,2,4]triazolo[1,5-a]pyridin-7-yloxy)-2-fluoro-3-methylphenyl)amino)pyrido[3,2-d]pyrimidin-6-yl)thio)piperidin-1-yl)prop-2-en-1-one] the IC50 (ErbB2 WT) was 54.3 nM, the IC50 [1] was 49.4 nM and the IC50 (EGFR) was ≥ 10000 nM. The IC50 (EGFR wild type (EGFR WT)) was 1210 nM.
`C=CC(=O)N1CC(Sc2ccc3ncnc(Nc4ccc(Oc5ccc6c(c5)ncn6C)c(C)c4F)c3n2)C1` [Example 61, 1-(3-((4-((2-fluoro-3-methyl-4-((1-methyl-1H-benzo[d]imidazol-5-yl)oxy)phenyl)amino)pyrido[3,2-d]pyrimidin-6-yl)thio)azetidin-1-yl)prop-2-en-1-one] gave an IC50 (ErbB2 WT) of 16.3 nM, an IC50 [1] of 34.4 nM and an IC50 (EGFR) of 283 nM. The IC50 (EGFR wild type (EGFR WT)) was 976 nM.
Work on `C=CC(=O)N1CCC(Sc2ccc3ncnc(Nc4ccc(Oc5ccn6ncnc6c5)c(Cl)c4F)c3n2)CC1` [Example 62, 1-(4-((4-((4-([1,2,4]triazolo[1,5-a]pyridin-7-yloxy)-3-chloro-2-fluorophenyl)amino)pyrido[3,2-d]pyrimidin-6-yl)thio)piperidin-1-yl)prop-2-en-1-one] yielded an IC50 (ErbB2 WT) of 15.3 nM, an IC50 [1] of 28.1 nM and an IC50 (EGFR) of 333 nM. It also gave an IC50 (EGFR wild type (EGFR WT)) of 639 nM.
`C=CC(=O)N1CC[C@@H]2C[C@H]1CN2c1ccc2ncnc(Nc3cc(C)c(Oc4ccc5c(c4)ncn5C)cc3F)c2n1` [Example 66, 1-((1S,5R)-6-(4-((2-fluoro-5-methyl-4-((1-methyl-1H-benzo[d]imidazol-5-yl)oxy)phenyl)amino)pyrido[3,2-d]pyrimidin-6-yl)-2,6-diazabicyclo[3.2.1]octan-2-yl)prop-2-en-1-one] was tested, and the IC50 (ErbB2 WT) was 6.8 nM, the IC50 [1] was 6.1 nM and the IC50 (EGFR) was 84.5 nM. For the same molecule, the IC50 (EGFR wild type (EGFR WT)) was 153 nM.
`C=CC(=O)N1CC[C@H]2C[C@@H]1CN2c1ccc2ncnc(Nc3ccc(Oc4ccc5c(c4)ncn5C)c(C)c3F)c2n1` [Example 67, 1-((1R,5S)-6-(4-((2-fluoro-3-methyl-4-((1-methyl-1H-benzo[d]imidazol-5-yl)oxy)phenyl)amino)pyrido[3,2-d]pyrimidin-6-yl)-2,6-diazabicyclo[3.2.1]octan-2-yl)prop-2-en-1-one] was tested, and the IC50 (ErbB2 WT) was 422 nM, the IC50 [1] was 35.8 nM and the IC50 (EGFR) was ≥ 10000 nM. The IC50 (EGFR wild type (EGFR WT)) was ≥ 5000 nM.
`C=CC(=O)N1CCN(c2ccc3ncnc(Nc4ccc(Oc5ccc6c(c5)ncn6C)c(C)c4F)c3n2)CCC1(C)C` [Example 68, 1-(4-(4-((2-fluoro-3-methyl-4-((1-methyl-1H-benzo[d]imidazol-5-yl)oxy)phenyl)amino)pyrido[3,2-d]pyrimidin-6-yl)-7,7-dimethyl-1,4-diazepan-1-yl)prop-2-en-1-one] was tested, and the IC50 (ErbB2 WT) was 664 nM, the IC50 [1] was 73.8 nM and the IC50 (EGFR) was ≥ 10000 nM. The IC50 (EGFR wild type (EGFR WT)) was ≥ 5000 nM.
`C=CC(=O)N1CCN(c2ccc3ncnc(Nc4cc(Cl)c(Oc5ccc6c(c5)ncn6C)cc4F)c3n2)CC1(C)C` [Example 76, 1-(4-(4-((5-chloro-2-fluoro-4-((1-methyl-1H-benzo[d]imidazol-5-yl)oxy)phenyl)amino)pyrido[3,2-d]pyrimidin-6-yl)-2,2-dimethylpiperazin-1-yl)prop-2-en-1-one] was tested, and the IC50 (ErbB2 WT) was 33.4 nM, the IC50 [1] was 17.1 nM and the IC50 (EGFR) was ≥ 10000 nM. For the same molecule, the IC50 (EGFR wild type (EGFR WT)) was ≥ 5000 nM.
For `C=CC(=O)N1C[C@H]2C[C@@H]1CN2c1ccc2ncnc(Nc3cc(C)c(Oc4ccn5ncnc5c4)cc3F)c2n1` [Example 78, 1-((1R,4R)-5-(4-((4-([1,2,4]triazolo[1,5-a]pyridin-7-yloxy)-2-fluoro-5-methylphenyl)amino)pyrido[3,2-d]pyrimidin-6-yl)-2,5-diazabicyclo[2.2.1]heptan-2-yl)prop-2-en-1-one], the IC50 (ErbB2 WT) was 448 nM, the IC50 [1] was 145 nM and the IC50 (EGFR) was ≥ 10000 nM. For the same molecule, the IC50 (EGFR wild type (EGFR WT)) was ≥ 5000 nM.
In the case of `C=CC(=O)N1CCN(c2ccc3ncnc(Nc4cc(C)c(Oc5ccn6ncnc6c5)cc4F)c3n2)CC1` [Example 79, 1-(4-(4-((4-([1,2,4]triazolo[1,5-a]pyridin-7-yloxy)-2-fluoro-5-methylphenyl)amino)pyrido[3,2-d]pyrimidin-6-yl)piperazin-1-yl)prop-2-en-1-one], the IC50 (ErbB2 WT) is reported as 104 nM, the IC50 [1] is reported as 42.6 nM and the IC50 (EGFR) is reported as ≥ 10000 nM. The IC50 (EGFR wild type (EGFR WT)) was ≥ 5000 nM.
`C=CC(=O)N1CCN(c2ccc3ncnc(Nc4ccc(Oc5ccn6ncnc6c5)c(Cl)c4F)c3n2)C[C@H]1C(F)(F)F` [Example 85, (S)-1-(4-(4-((4-([1,2,4]triazolo[1,5-a]pyridin-7-yloxy)-3-chloro-2-fluorophenyl)amino)pyrido[3,2-d]pyrimidin-6-yl)-2-(trifluoromethyl)piperazin-1-yl)prop-2-en-1-one] gave an IC50 (ErbB2 WT) of 3.1 nM, an IC50 [1] of 25 nM and an IC50 (EGFR) of 205 nM. The IC50 (EGFR wild type (EGFR WT)) was 446 nM.
Molecule `C=CC(=O)N1CCN(c2ccc3ncnc(Nc4ccc(Oc5ccn6ncnc6c5)c(Cl)c4F)c3n2)C[C@@H]1C(F)(F)F` [Example 86, (R)-1-(4-(4-((4-([1,2,4]triazolo[1,5-a]pyridin-7-yloxy)-3-chloro-2-fluorophenyl)amino)pyrido[3,2-d]pyrimidin-6-yl)-2-(trifluoromethyl)piperazin-1-yl)prop-2-en-1-one] has an IC50 (ErbB2 WT) of 2.3 nM, an IC50 [1] of 5.7 nM and an IC50 (EGFR) of 30 nM. The IC50 (EGFR wild type (EGFR WT)) was 45.4 nM.
For `C=CC(=O)N1CCN(c2ccc3ncnc(Nc4ccc(Oc5ccn6ncnc6c5)c(Cl)c4F)c3n2)CC1(C)C` [Example 87, 1-(4-(4-((4-([1,2,4]triazolo[1,5-a]pyridin-7-yloxy)-3-chloro-2-fluorophenyl)amino)pyrido[3,2-d]pyrimidin-6-yl)-2,2-dimethylpiperazin-1-yl)prop-2-en-1-one], the IC50 (ErbB2 WT) was 7.5 nM, the IC50 [1] was 8.8 nM and the IC50 (EGFR) was 463 nM. For the same molecule, the IC50 (EGFR wild type (EGFR WT)) was 178 nM.
In the case of `C=CC(=O)N1CCN(c2ccc3ncnc(Nc4ccc(Oc5ccn6ncnc6c5)c(C)c4F)c3n2)C[C@@H]1C` [Example 88, (S)-1-(4-(4-((4-([1,2,4]triazolo[1,5-a]pyridin-7-yloxy)-2-fluoro-3-methylphenyl)amino)pyrido[3,2-d]pyrimidin-6-yl)-2-methylpiperazin-1-yl)prop-2-en-1-one], the IC50 (ErbB2 WT) is reported as 81.3 nM, the IC50 [1] is reported as 17.8 nM and the IC50 (EGFR) is reported as 2950 nM. It also gave an IC50 (EGFR wild type (EGFR WT)) of 1850 nM.
`C=CC(=O)N1CCN(c2ccc3ncnc(Nc4ccc(Oc5ccn6ncnc6c5)c(C)c4F)c3n2)C[C@H]1C` [Example 89, (R)-1-(4-(4-((4-([1,2,4]triazolo[1,5-a]pyridin-7-yloxy)-2-fluoro-3-methylphenyl)amino)pyrido[3,2-d]pyrimidin-6-yl)-2-methylpiperazin-1-yl)prop-2-en-1-one] gave an IC50 (ErbB2 WT) of 76.5 nM, an IC50 [1] of 10.9 nM and an IC50 (EGFR) of 3630 nM. The IC50 (EGFR wild type (EGFR WT)) was 449 nM.
`C=CC(=O)N1CCN(c2ccc3ncnc(Nc4ccc(Oc5ccn6ncnc6c5)c(Cl)c4F)c3n2)C[C@@H]1C` [Example 90, (S)-1-(4-(4-((4-([1,2,4]triazolo[1,5-a]pyridin-7-yloxy)-3-chloro-2-fluorophenyl)amino)pyrido[3,2-d]pyrimidin-6-yl)-2-methylpiperazin-1-yl)prop-2-en-1-one] gave an IC50 (ErbB2 WT) of 13.4 nM, an IC50 [1] of 5.9 nM and an IC50 (EGFR) of 519 nM. The IC50 (EGFR wild type (EGFR WT)) was 575 nM.
`C=CC(=O)N1CCN(c2ccc3ncnc(Nc4ccc(Oc5ccn6ncnc6c5)c(Cl)c4F)c3n2)C[C@H]1C` [Example 91, (R)-1-(4-(4-((4-([1,2,4]triazolo[1,5-a]pyridin-7-yloxy)-3-chloro-2-fluorophenyl)amino)pyrido[3,2-d]pyrimidin-6-yl)-2-methylpiperazin-1-yl)prop-2-en-1-one] gave an IC50 (ErbB2 WT) of 9.8 nM, an IC50 [1] of 2.8 nM and an IC50 (EGFR) of 358 nM. For the same molecule, the IC50 (EGFR wild type (EGFR WT)) was 56.8 nM.
In the case of `C=CC(=O)N1C[C@H]2C[C@@H]1CN2c1ccc2ncnc(Nc3ccc(Oc4ccn5ncnc5c4)c(Cl)c3F)c2n1` [Example 92, 1-((1R,4R)-5-(4-((4-([1,2,4]triazolo[1,5-a]pyridin-7-yloxy)-3-chloro-2-fluorophenyl)amino)pyrido[3,2-d]pyrimidin-6-yl)-2,5-diazabicyclo[2.2.1]heptan-2-yl)prop-2-en-1-one], the IC50 (ErbB2 WT) is reported as 126 nM, the IC50 [1] is reported as 15.4 nM and the IC50 (EGFR) is reported as 2430 nM. It also gave an IC50 (EGFR wild type (EGFR WT)) of 1880 nM.
Molecule `C=CC(=O)N1C[C@@H]2C[C@H]1CN2c1ccc2ncnc(Nc3ccc(Oc4ccn5ncnc5c4)c(Cl)c3F)c2n1` [Example 93, 1-((1S,4S)-5-(4-((4-([1,2,4]triazolo[1,5-a]pyridin-7-yloxy)-3-chloro-2-fluorophenyl)amino)pyrido[3,2-d]pyrimidin-6-yl)-2,5-diazabicyclo[2.2.1]heptan-2-yl)prop-2-en-1-one] has an IC50 (ErbB2 WT) of 12.6 nM, an IC50 [1] of 3.7 nM and an IC50 (EGFR) of 137 nM. For the same molecule, the IC50 (EGFR wild type (EGFR WT)) was 53.5 nM.
For `C=CC(=O)N1C[C@@H]2C[C@H]1CN2c1ccc2ncnc(Nc3ccc(Oc4ccn5ncnc5c4)c(C)c3F)c2n1` [Example 95, 1-((1S,4S)-5-(4-((4-([1,2,4]triazolo[1,5-a]pyridin-7-yloxy)-2-fluoro-3-methylphenyl)amino)pyrido[3,2-d]pyrimidin-6-yl)-2,5-diazabicyclo[2.2.1]heptan-2-yl)prop-2-en-1-one], the IC50 (ErbB2 WT) was 38 nM, the IC50 [1] was 5 nM and the IC50 (EGFR) was 378 nM. For the same molecule, the IC50 (EGFR wild type (EGFR WT)) was 49.5 nM.
`C=CC(=O)N1CCCN(c2ccc3ncnc(Nc4ccc(Oc5ccn6ncnc6c5)c(Cl)c4)c3n2)CC1` [Example 99, 1-(4-(4-((4-([1,2,4]triazolo[1,5-a]pyridin-7-yloxy)-3-chlorophenyl)amino)pyrido[3,2-d]pyrimidin-6-yl)-1,4-diazepan-1-yl)prop-2-en-1-one] showed an IC50 (ErbB2 WT) of 19 nM, an IC50 [1] of 35.2 nM and an IC50 (EGFR) of 5840 nM. The IC50 (EGFR wild type (EGFR WT)) was ≥ 5000 nM.
With `C=CC(=O)N1CCCN(c2ccc3ncnc(Nc4ccc(Oc5ccn6ncnc6c5)c(C)c4F)c3n2)CC1` [Example 100, 1-(4-(4-((4-([1,2,4]triazolo[1,5-a]pyridin-7-yloxy)-2-fluoro-3-methylphenyl)amino)pyrido[3,2-d]pyrimidin-6-yl)-1,4-diazepan-1-yl)prop-2-en-1-one] the IC50 (ErbB2 WT) was 132 nM, the IC50 [1] was 66.1 nM and the IC50 (EGFR) was 9570 nM. For the same molecule, the IC50 (EGFR wild type (EGFR WT)) was ≥ 5000 nM.
